How the values were obtained:
[1] = tested on: Pu27 (DNA, G4) TGGGGAGGGTGGGGAGGGTGGGGAAGG; experiment: PCR stop assay (Taq polymerase); conditions: 1x PCR buffer, extension 72 °C, indirect
[2] = tested on: Pu24I (DNA, G4, inosine at 10 (G-to-I)) TGAGGGTGGGGAGGGTGGGGAAGG; experiment: 1H NMR titration (imino proton shifts); conditions: 150 mM KCl, 25 mM KH2PO4; 1 mM EDTA, pH 7.0, 298 K, 90% H2O/10% D2O; 1.0 mM DNA

Row | binding ([1]; inhibition only at higher concentration (500 µM)) | binding [2] | binding ([1]; 10 µM oligomers, complementary primer, effect at 125 µM, 250 µM) | Structure (SMILES)
1 | weak |  |  | COc1cc(NC(=O)Nc2nc3c(s2)C[C@]2(C)CC[C@@H]4[C@H](OC(=O)[C@H]4C)[C@H]2[C@@H]3C)cc(OC)c1
2 |  | yes | weak | C[C@@H]1C(=O)O[C@H]2[C@H]1CC[C@@]1(C)Cc3sc(NC(=O)Nc4ccc(Oc5ccccc5)cc4)nc3[C@@H](C)[C@H]21
